According to patent publication US5593984A, “Cephalosporin derivatives” (Yuhan Corporation, priority 1992, dated 1997):
In brackets after ≈: the same amount, converted by molar mass.

How the values were obtained:
Format in all cases: cell-based
B. subtilis ATCC 6633 = assay: MIC by agar dilution, B. subtilis ATCC 6633; conditions: Bacillus subtilis, ATCC6633, 17 h; B. subtilis ATCC 6633; agar dilution, Mueller-Hinton agar; read-out: Minimal Inhibitory Concentration (MIC)
Summary of the method: (§1)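 Inoculum of 10^6 CFU per ml was spotted onto Mueller-Hinton agar plates carrying two-fold compound dilutions. Plates were held at 35°-37° C. for 17±1 hours before the minimum inhibitory concentration was recorded.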

Staph. aureus ATCC 6538P = assay: MIC by agar dilution, Staph. aureus ATCC 6538P; conditions: Staphylococcus aureus, ATCC6538P, 17 h; Staph. aureus ATCC 6538P; agar dilution, Mueller-Hinton agar; read-out: Minimal Inhibitory Concentration (MIC)
Summary of the method: as §1

Staph. aureus Smith = assay: MIC by agar dilution, Staph. aureus Smith; conditions: Staphylococcus aureus, 17 h, Mueller-Hinton agar, read-out: Minimal Inhibitory Concentration (MIC)
Summary of the method: as §1

Staph. aureus C-57 = assay: MIC by agar dilution, Staph. aureus C-57; conditions: Staphylococcus aureus, C57, 17 h, Mueller-Hinton agar, read-out: Minimal Inhibitory Concentration (MIC)
Summary of the method: as §1

Staph. aureus C-5113 = assay: MIC by agar dilution, Staph. aureus C-5113; conditions: Staphylococcus aureus, C5113, 17 h, Mueller-Hinton agar, read-out: Minimal Inhibitory Concentration (MIC)
Summary of the method: as §1

Staph. aureus C-5216 = assay: MIC by agar dilution, Staph. aureus C-5216; conditions: Staphylococcus aureus, C5216, 17 h, Mueller-Hinton agar, read-out: Minimal Inhibitory Concentration (MIC)
Summary of the method: as §1

[1] = test system: S. epidermidis ATCC 12228; assay: MIC by agar dilution, S. epidermidis ATCC 12228; conditions: Staphylococcus epidermidis, ATCC12228, 17 h; S. epidermidis ATCC 12228; agar dilution, Mueller-Hinton agar; read-out: Minimal Inhibitory Concentration (MIC)
Summary of the method: as §1

Ent. aerogenes IFO 12979 = assay: MIC by agar dilution, Ent. aerogenes IFO 12979; conditions: Klebsiella aerogenes, IFO12979, 17 h, Mueller-Hinton agar, read-out: Minimal Inhibitory Concentration (MIC)
Summary of the method: as §1

Ent. cloacae IFO 13535 = assay: MIC by agar dilution, Ent. cloacae IFO 13535; conditions: Enterobacter cloacae, IFO13535, 17 h; Ent. cloacae IFO 13535; agar dilution, Mueller-Hinton agar; read-out: Minimal Inhibitory Concentration (MIC)
Summary of the method: as §1

E. coli NIHJ JC-2 = assay: MIC by agar dilution, E. coli NIHJ JC-2; conditions: Escherichia coli, NIHJJC2, 17 h; E. coli NIHJ JC-2; agar dilution, Mueller-Hinton agar; read-out: Minimal Inhibitory Concentration (MIC)
Summary of the method: as §1

E. coli No. 29 = assay: MIC by agar dilution, E. coli No. 29; conditions: Escherichia coli, 17 h; E. coli No. 29; agar dilution, Mueller-Hinton agar; read-out: Minimal Inhibitory Concentration (MIC)
Summary of the method: as §1

E. coli DY-1 = assay: MIC by agar dilution, E. coli DY-1; conditions: Escherichia coli, DY1, 17 h; E. coli DY-1; agar dilution, Mueller-Hinton agar; read-out: Minimal Inhibitory Concentration (MIC)
Summary of the method: as §1

K. pneumoniae NCTC 9632 = assay: MIC by agar dilution, K. pneumoniae NCTC 9632; conditions: Klebsiella pneumoniae, NCTC9632, 17 h; K. pneumoniae NCTC 9632; agar dilution, Mueller-Hinton agar; read-out: Minimal Inhibitory Concentration (MIC)
Summary of the method: as §1

M. morganii DY-1 = assay: MIC by agar dilution, M. morganii DY-1; conditions: Morganella morganii, DY1, 17 h; M. morganii DY-1; agar dilution, Mueller-Hinton agar; read-out: Minimal Inhibitory Concentration (MIC)
Summary of the method: as §1

[2] = test system: Ps. aeruginosa ATCC 10145; assay: MIC by agar dilution, Ps. aeruginosa ATCC 10145; conditions: Pseudomonas aeruginosa, ATCC10145, 17 h, Mueller-Hinton agar, read-out: Minimal Inhibitory Concentration (MIC)
Summary of the method: as §1

[3] = test system: Ps. aeruginosa NCTC 10490; assay: MIC by agar dilution, Ps. aeruginosa NCTC 10490; conditions: Pseudomonas aeruginosa, NCTC10490, 17 h, Mueller-Hinton agar, read-out: Minimal Inhibitory Concentration (MIC)
Summary of the method: as §1

Ps. aeruginosa DY-2 = assay: MIC by agar dilution, Ps. aeruginosa DY-2; conditions: Pseudomonas aeruginosa, DY2, 17 h; Ps. aeruginosa DY-2; agar dilution, Mueller-Hinton agar; read-out: Minimal Inhibitory Concentration (MIC)
Summary of the method: as §1

P. vulgaris NCTC 8313 = assay: MIC by agar dilution, P. vulgaris NCTC 8313; conditions: Proteus vulgaris, NCTC8313, 17 h; P. vulgaris NCTC 8313; agar dilution, Mueller-Hinton agar; read-out: Minimal Inhibitory Concentration (MIC)
Summary of the method: as §1

Prov. stuartii IFO 12930 = assay: MIC by agar dilution, Prov. stuartii IFO 12930; conditions: Providencia stuartii, IFO12930, 17 h, Mueller-Hinton agar, read-out: Minimal Inhibitory Concentration (MIC)
Summary of the method: as §1

[4] = test system: Ser. marcescens IFO 12648; assay: MIC by agar dilution, Ser. marcescens IFO 12648; conditions: Serratia marcescens, IFO12648, 17 h; Ser. marcescens IFO 12648; agar dilution, Mueller-Hinton agar; read-out: Minimal Inhibitory Concentration (MIC)
Summary of the method: as §1

In the case of `CO/N=C(\C(=O)N[C@@H]1C(=O)N2C(C(=O)[O-])=C(C[n+]3ccn4c(C(C)=O)cc(Cl)c4c3)CS[C@H]12)c1csc(N)n1` [Ex. 34, 7-β-[(Z)-2-(2-aminothiazol-4-yl)2-methoxyiminoacetamido]-3-(6-acetyl-8-chloropyrrolo[1,2-a]pyrazinium-2-yl)methyl-3-cephem-4-carboxylate], the MIC (B. subtilis ATCC 6633) is reported as 0.39 µg/mL (≈ 0.661 µM), the MIC (Staph. aureus ATCC 6538P) is reported as 0.78 µg/mL (≈ 1.32 µM) and the MIC (Staph. aureus Smith) is reported as 1.56 µg/mL (≈ 2.64 µM). The MIC (Staph. aureus C-57) was 25 µg/mL (≈ 42.4 µM), the MIC (Staph. aureus C-5113) was 0.78 µg/mL (≈ 1.32 µM) and the MIC (Staph. aureus C-5216) was 0.78 µg/mL (≈ 1.32 µM). It also gave an MIC [1] of 0.1 µg/mL (≈ 0.169 µM), an MIC (Ent. aerogenes IFO 12979) of 0.025 µg/mL (≈ 0.0424 µM) and an MIC (Ent. cloacae IFO 13535) of 0.1 µg/mL (≈ 0.169 µM). For the same compound, the MIC (E. coli NIHJ JC-2) was 0.05 µg/mL (≈ 0.0847 µM), the MIC (E. coli No. 29) was 0.025 µg/mL (≈ 0.0424 µM) and the MIC (E. coli DY-1) was 0.025 µg/mL (≈ 0.0424 µM). The MIC (K. pneumoniae NCTC 9632) was 0.025 µg/mL (≈ 0.0424 µM), the MIC (M. morganii DY-1) was 0.05 µg/mL (≈ 0.0847 µM) and the MIC [2] was 6.25 µg/mL (≈ 10.6 µM). For the same compound, the MIC [3] was 3.13 µg/mL (≈ 5.3 µM), the MIC (Ps. aeruginosa DY-2) was 25 µg/mL (≈ 42.4 µM) and the MIC (P. vulgaris NCTC 8313) was 0.012 µg/mL (≈ 0.0203 µM). The MIC (Prov. stuartii IFO 12930) was 0.025 µg/mL (≈ 0.0424 µM) and the MIC [4] was 0.05 µg/mL (≈ 0.0847 µM).
With `CCON=C(C(=O)NC1C(=O)N2C(C(=O)[O-])=C(C[n+]3ccn4c(Cl)ccc4c3)CSC12)c1csc(N)n1` (stereo not drawn) [Ex. 12, 7-β-[(Z)-2-(2-aminothiazol-4-yl)-2-ethoxyiminoacetamido]-3-(6-chloropyrrolo[1,2-a]pyrazinium-2-yl)methyl-3-cephem-4-carboxylate] the MIC (B. subtilis ATCC 6633) was 0.1 µg/mL (≈ 0.178 µM), the MIC (Staph. aureus ATCC 6538P) was 0.2 µg/mL (≈ 0.356 µM) and the MIC (Staph. aureus Smith) was 0.39 µg/mL (≈ 0.694 µM). The MIC (Staph. aureus C-57) was 12.5 µg/mL (≈ 22.2 µM), the MIC (Staph. aureus C-5113) was 0.78 µg/mL (≈ 1.39 µM) and the MIC (Staph. aureus C-5216) was 0.78 µg/mL (≈ 1.39 µM). The MIC [1] was 0.05 µg/mL (≈ 0.089 µM), the MIC (Ent. aerogenes IFO 12979) was 0.025 µg/mL (≈ 0.0445 µM) and the MIC (Ent. cloacae IFO 13535) was 0.39 µg/mL (≈ 0.694 µM). The MIC (E. coli NIHJ JC-2) was 0.05 µg/mL (≈ 0.089 µM), the MIC (E. coli No. 29) was 0.012 µg/mL (≈ 0.0214 µM) and the MIC (E. coli DY-1) was 0.012 µg/mL (≈ 0.0214 µM). The MIC (K. pneumoniae NCTC 9632) was 0.025 µg/mL (≈ 0.0445 µM), the MIC (M. morganii DY-1) was 0.025 µg/mL (≈ 0.0445 µM) and the MIC [2] was 1.56 µg/mL (≈ 2.78 µM). For the same compound, the MIC [3] was 0.39 µg/mL (≈ 0.694 µM), the MIC (Ps. aeruginosa DY-2) was 6.25 µg/mL (≈ 11.1 µM) and the MIC (P. vulgaris NCTC 8313) was 0.012 µg/mL (≈ 0.0214 µM). For the same compound, the MIC (Prov. stuartii IFO 12930) was 0.025 µg/mL (≈ 0.0445 µM) and the MIC [4] was 0.025 µg/mL (≈ 0.0445 µM).
Compound `CO/N=C(\C(=O)N[C@@H]1C(=O)N2C(C(=O)[O-])=C(C[n+]3ccn4c(C(C)C)cc(C(C)C)c4c3)CS[C@H]12)c1csc(N)n1` [Ex. 36, 7-β-[(Z)-2-(2-aminothiazol-4-yl)-2-methoxyiminoacetamido]-3-(6,8-diisopropyl-pyrrolo[1,2-a]pyrazinium-2-yl)methyl-3-cephem-4-carboxylate] has an MIC (B. subtilis ATCC 6633) of 0.2 µg/mL (≈ 0.335 µM), an MIC (Staph. aureus ATCC 6538P) of 0.39 µg/mL (≈ 0.652 µM) and an MIC (Staph. aureus Smith) of 3.13 µg/mL (≈ 5.24 µM). The MIC (Staph. aureus C-57) was 100 µg/mL (≈ 167 µM), the MIC (Staph. aureus C-5113) was 1.56 µg/mL (≈ 2.61 µM) and the MIC (Staph. aureus C-5216) was 6.25 µg/mL (≈ 10.5 µM). The MIC [1] was 0.2 µg/mL (≈ 0.335 µM), the MIC (Ent. aerogenes IFO 12979) was 0.2 µg/mL (≈ 0.335 µM) and the MIC (Ent. cloacae IFO 13535) was 3.13 µg/mL (≈ 5.24 µM). It also gave an MIC (E. coli NIHJ JC-2) of 0.78 µg/mL (≈ 1.3 µM), an MIC (E. coli No. 29) of 0.2 µg/mL (≈ 0.335 µM) and an MIC (E. coli DY-1) of 0.1 µg/mL (≈ 0.167 µM). It also gave an MIC (K. pneumoniae NCTC 9632) of 0.78 µg/mL (≈ 1.3 µM), an MIC (M. morganii DY-1) of 1.56 µg/mL (≈ 2.61 µM) and an MIC [2] of 50 µg/mL (≈ 83.7 µM). It also gave an MIC [3] of 25 µg/mL (≈ 41.8 µM), an MIC (Ps. aeruginosa DY-2) of 100 µg/mL (≈ 167 µM) and an MIC (P. vulgaris NCTC 8313) of 0.05 µg/mL (≈ 0.0837 µM). It also gave an MIC (Prov. stuartii IFO 12930) of 0.2 µg/mL (≈ 0.335 µM) and an MIC [4] of 0.78 µg/mL (≈ 1.3 µM).
Compound `CO/N=C(\C(=O)N[C@@H]1C(=O)N2C(C(=O)[O-])=C(C[n+]3cc(C(=O)O)n4cccc4c3)CS[C@H]12)c1csc(N)n1` [Ex. 39, 7-β-[(Z)-2-(2-aminothiazol-4-yl)-2-methoxyiminoacetamido]-3-(4-carboxypyrrolo[1,2-a]pyrazinium-2-yl)methyl-3-cephem-4-carboxylate] has an MIC (B. subtilis ATCC 6633) of 0.2 µg/mL (≈ 0.359 µM), an MIC (Staph. aureus ATCC 6538P) of 0.39 µg/mL (≈ 0.699 µM) and an MIC (Staph. aureus Smith) of 1.56 µg/mL (≈ 2.8 µM). It also gave an MIC (Staph. aureus C-57) of 50 µg/mL (≈ 89.7 µM), an MIC (Staph. aureus C-5113) of 1.56 µg/mL (≈ 2.8 µM) and an MIC (Staph. aureus C-5216) of 1.56 µg/mL (≈ 2.8 µM). For the same compound, the MIC [1] was 0.05 µg/mL (≈ 0.0897 µM), the MIC (Ent. aerogenes IFO 12979) was at most 0.006 µg/mL and the MIC (Ent. cloacae IFO 13535) was 0.012 µg/mL (≈ 0.0215 µM). The MIC (E. coli NIHJ JC-2) was at most 0.006 µg/mL, the MIC (E. coli No. 29) was at most 0.006 µg/mL and the MIC (E. coli DY-1) was at most 0.006 µg/mL. It also gave an MIC (K. pneumoniae NCTC 9632) of at most 0.006 µg/mL, an MIC (M. morganii DY-1) of at most 0.006 µg/mL and an MIC [2] of 0.78 µg/mL (≈ 1.4 µM). For the same compound, the MIC [3] was 0.2 µg/mL (≈ 0.359 µM), the MIC (Ps. aeruginosa DY-2) was 6.25 µg/mL (≈ 11.2 µM) and the MIC (P. vulgaris NCTC 8313) was at most 0.006 µg/mL. The MIC (Prov. stuartii IFO 12930) was at most 0.006 µg/mL and the MIC [4] was at most 0.006 µg/mL.
